Data set [1] concerns BALB/c mice on 0.2% adenine diet. The following applies: mouse, in vivo.
Text: This diet-induced model of CKD, which develops kidney tubulointerstitial damage and cardiac hypertrophy, was constructed in accordance with previous studies.^74,75 Male and female mice were studied in separate groups on the basis of the gender-specific effect of adenine, with females taking much longer (16-20 weeks) to develop kidney injury.^76 Five-week-old BALB/c mice (The Jackson Laboratory) were put on the control diet for 1 week. After 1 week, male and female mice were each split into 4 groups, receiving control chow and saline injections, control chow and heparin injections, adenine chow and saline injections, or adenine chow and heparin injections. […]
Short-axis heart sections were stained with H&E (IDEXX Laboratories) and used for representative images. Pictures were taken with a Leica Dmi8 fluorescence microscope. The crosssectional area of individual cardiac myocytes in paraffin-embedded short-axis sections was measured. […] Immunofluorescence images were taken with a Leica Dmi8 fluorescence microscope with a 60× oil objective. ImageJ software (National Institutes of Health) was used to quantify the cross-sectional area of 25 cells per field in 4 fields along the mid-chamber free wall on the basis of WGA-positive staining.
A further data set has as its target T1, FGF23 binding to FGFR2c (Homo sapiens, UniProt P21802).
T1 construct: Fc-coupled FGFR ectodomains were immobilized on protein A/G beads; purchased R&D Systems 2604FG025/CF or 2629FG025/CF; 712FR050
Briefly: Pull-down of FGF23 with Fc-FGFR on protein A/G beads with sKL, heparin or PBS. The following applies: with heparin, or alone. Here is the method: (§1) To study the interaction between Fc-tagged FGFR isoforms (Fc-FGFR), FGF isoforms, and sKL, immunoprecipitation studies were conducted. Protein A beads (6501, BioVision) and protein G beads (6511, BioVision) were used at 25 μl of a 50% stock slurry per sample in a total bead volume of 50 μl. Beads were washed 5× in activity buffer (50 mM Tris [pH 7.4], 200 mM NaCl, 0.01% Tween 20). Bead spin-down assays were all performed for 2 minutes at 5000 g. Beads were resuspended in 1 ml of activity buffer in a 1.5-ml snap cap tube. One microgram of Fc-FGFR1 to 4 was incubated with the beads for 1 hour on a bead rotator. Control samples were incubated with 2 μg of anti-FGF antibody instead of Fc-FGFR. Beads were then pelleted at 5000 g for 2 minutes and washed 5× with activity buffer. Beads were resuspended and incubated with different combinations of 500 ng of FGF, 1 μg of sKL, 1.6 United States Pharmacopeia (USP) units of heparin, or phosphate-buffered saline (PBS). Beads were incubated for 1 hour on a tube rotator, and beads were pelleted and washed as before. One hundred microliters of 1× Laemmli sample buffer (1610737, Bio-Rad) with 1.42 M 2-mercaptoethanol was added, and samples were boiled for 5 minutes. Samples were analyzed using SDS-PAGE and Western blotting.
(§2) The sample (20 μl) was loaded onto Mini-PROTEAN TGX Precast Gel 4-20% for experiments with <9 samples (4568094, Bio-Rad) or Criterion TGX Precast Gel 4-20% (5678094, Bio-Rad) for experiments with >9 samples. Gels were run in 1× Tris/Glycine/SDS buffer (1610732, Bio-Rad) at 150 V and stopped when the sample dye reached the end of the gel. Gels were removed and electrotransferred via a semi-dry cassette (1703940, Bio-Rad) in I× Tris/Glycine buffer (1610734, Bio-Rad) with 20% methanol. Gels were transferred onto polyvinylidene diflouride membranes (IPVH00010, Millipore) at 20 V for 1 hour. Membranes were then blocked in 5% dried milk with 0.5% Tween 20 diluted in Tris-buffered saline (TBST; pH 7.5) for 1 hour and probed with antibodies against specific antigens at 1:1000 in TBST with 5% dried milk. Blots were washed 3× for 5 minutes in TBST and probed with HRP-coupled secondary antibodies against specific species at 1:10,000 in TBST with 5% dried milk. Membranes were imaged on the SRX-101A X-ray film developer (Konica Minolta).

The target of another data set is T2, FGF23 binding to FGFR1c (Homo sapiens, UniProt P11362+Q9GZV9).
T2 construct: Fc-coupled FGFR ectodomains were immobilized on protein A/G beads; purchased R&D Systems 2604FG025/CF or 2629FG025/CF; 658FR050
T2 sequence (Q9GZV9 25-251): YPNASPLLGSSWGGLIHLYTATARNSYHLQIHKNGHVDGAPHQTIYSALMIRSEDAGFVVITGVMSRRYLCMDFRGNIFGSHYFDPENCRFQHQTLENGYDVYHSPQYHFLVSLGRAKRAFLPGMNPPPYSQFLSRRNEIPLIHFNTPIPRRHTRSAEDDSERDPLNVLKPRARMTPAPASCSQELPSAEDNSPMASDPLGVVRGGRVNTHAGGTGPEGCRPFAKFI
T2 sequence (P11362 22-376 limits assumed): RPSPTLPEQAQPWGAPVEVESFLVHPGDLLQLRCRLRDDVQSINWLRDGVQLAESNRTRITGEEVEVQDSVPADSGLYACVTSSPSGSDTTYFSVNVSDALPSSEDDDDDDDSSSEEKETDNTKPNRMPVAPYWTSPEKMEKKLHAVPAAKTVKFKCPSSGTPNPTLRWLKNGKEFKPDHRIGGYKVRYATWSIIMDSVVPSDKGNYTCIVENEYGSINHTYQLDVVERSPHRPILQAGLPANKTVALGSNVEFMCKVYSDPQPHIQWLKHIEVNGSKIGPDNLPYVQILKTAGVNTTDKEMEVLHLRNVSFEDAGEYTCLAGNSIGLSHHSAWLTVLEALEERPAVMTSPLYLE
The description is as above. The following applies: with heparin, or alone. Here is the method: as §1, §2

The target in a further data set is T3, FGF23 binding to FGFR4 (Homo sapiens, UniProt P22455+Q9GZV9).
T3 construct: Fc-coupled FGFR ectodomains were immobilized on protein A/G beads; purchased R&D Systems 2604FG025/CF or 2629FG025/CF; 685FR050
T3 sequence (Q9GZV9 25-251): as the sequence (Q9GZV9 25-251) above
T3 sequence (P22455 22-369 limits assumed): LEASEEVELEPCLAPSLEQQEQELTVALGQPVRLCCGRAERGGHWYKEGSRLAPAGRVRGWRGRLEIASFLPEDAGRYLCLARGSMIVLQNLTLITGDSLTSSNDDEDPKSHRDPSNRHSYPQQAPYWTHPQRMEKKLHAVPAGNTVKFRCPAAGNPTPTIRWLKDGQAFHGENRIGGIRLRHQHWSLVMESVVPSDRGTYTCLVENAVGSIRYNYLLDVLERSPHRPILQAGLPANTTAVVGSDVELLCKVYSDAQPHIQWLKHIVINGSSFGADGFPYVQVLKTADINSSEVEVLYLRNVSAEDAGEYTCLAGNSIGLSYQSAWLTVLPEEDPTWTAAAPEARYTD
The data set is described as above. The note with it: with heparin, or alone. On the procedure:
as §1, §2

The next data set deals with T4, FGF23 binding to FGFR3c (Homo sapiens, UniProt P22607+Q9GZV9).
T4 construct: Fc-coupled FGFR ectodomains were immobilized on protein A/G beads; purchased R&D Systems 2604FG025/CF or 2629FG025/CF; 766FR050
T4 sequence (Q9GZV9 25-251): as the sequence (Q9GZV9 25-251) above
T4 sequence (P22607 23-375 limits assumed): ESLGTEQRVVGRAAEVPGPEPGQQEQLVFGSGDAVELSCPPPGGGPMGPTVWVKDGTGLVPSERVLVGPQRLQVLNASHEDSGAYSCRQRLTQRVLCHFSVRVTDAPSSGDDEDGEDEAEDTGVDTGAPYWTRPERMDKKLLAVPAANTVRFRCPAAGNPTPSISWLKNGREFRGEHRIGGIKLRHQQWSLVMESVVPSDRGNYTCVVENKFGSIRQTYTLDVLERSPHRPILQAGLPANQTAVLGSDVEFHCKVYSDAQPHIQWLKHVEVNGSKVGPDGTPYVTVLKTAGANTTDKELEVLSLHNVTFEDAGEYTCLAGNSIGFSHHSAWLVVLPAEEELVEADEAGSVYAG
The description is as above. The following applies: with heparin, or alone. Here is the method: as §1, §2

This is an account of results in patent US20240384250A1, “FIBROBLAST GROWTH FACTOR 23 MODULATING COMPOUNDS” (THE UAB RESEARCH FOUNDATION, priority 2021, published 2024).

“Also recorded” adds a separate entry of the source.

T1 sequence (P21802 22-377 limits assumed): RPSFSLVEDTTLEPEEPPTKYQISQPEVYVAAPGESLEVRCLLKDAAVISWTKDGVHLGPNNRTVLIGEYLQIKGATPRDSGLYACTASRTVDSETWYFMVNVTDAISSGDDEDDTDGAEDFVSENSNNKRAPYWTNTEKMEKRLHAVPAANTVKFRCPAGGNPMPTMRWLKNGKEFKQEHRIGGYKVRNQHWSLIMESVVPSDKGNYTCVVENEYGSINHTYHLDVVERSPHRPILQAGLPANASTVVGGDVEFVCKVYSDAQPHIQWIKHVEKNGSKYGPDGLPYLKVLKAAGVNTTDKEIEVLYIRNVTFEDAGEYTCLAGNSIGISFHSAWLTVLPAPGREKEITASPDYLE

As to heparin [reference compound], in data set [1], the “effect on the heart” value is on record as “no effect on the heart” and the “ratio of heart weight to body weight” value is on record as “not significantly altered”. Also, the “FGF23 co-precipitation with Fc-FGFR2c” value at FGF23 binding to FGFR2c is “weaker FGF23 binding”. Besides, on FGF23 binding to FGFR1c, the “FGF23 co-precipitation with Fc-FGFR1c” value is given as “weaker FGF23 binding”. For the same substance, the “FGF23 co-precipitation with Fc-FGFR4” value at FGF23 binding to FGFR4 was “efficiently coprecipitates FGF23; also recorded: increased binding of FGF23 to FGFR4”. Further, the “FGF23 co-precipitation with Fc-FGFR3c” value on FGF23 binding to FGFR3c is “weaker FGF23 binding”.
